The results in this text go back to patent US11478474B2, “2-(3′-(hydroxymethyl)-1-methyl-5-((5-(2-methyl-4-(oxetan-3-yl)piperazin-1-yl)pyridin-2-yl)amino)-6-oxo-1,6-dihydro-[3,4′-bipyridin]-2′-yl)-7,7-dimethyl-7,8-dihydro-2H-cyclopenta[4,5]pyrrolo[1,2-a]pyrazin-1(6H)-one as a BTK inhibitor” (HUTCHISON MEDIPHARMA LIMITED, priority 2020, dated 2022).

One experiment deals with BTK recombinant protein (Homo sapiens (Human), UniProt Q06187). Briefly: Determination of biochemical BTK (Z'-LYTE kinase assay). The method in brief: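 Human BTK recombinant kinase (3.32 nM final) was preincubated with compound for 30 min at 4 °C. Reaction ran 1 h at room temperature with Tyr01 FRET peptide (2 μM) and ATP (32 μM); development protease then added. Coumarin 445 nm/fluorescein 520 nm emission ratio (400 nm excitation) gave inhibition across 8 concentrations, 3000–1.37 nM.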

In experiment [1] the test system is B cell activation in rat whole blood. The experiment can be described thus: Determination of B cell activity in whole blood of rats (anti-rat IgD induced B cell activation, flow cytometry). The note with it: anti-rat immunoglobulin D 10 μg/mL, 18 hours, inhibition of B cell activation. The class given is cell-based. The procedure: Example 4 Determination of B Cell Activity in Whole Blood of Rats
1. Reagents and Materials
Peripheral whole blood of female Wistar rats;
In the determination of the compound activity, the collected peripheral whole blood of rat was added to a 96 well plate at 80 μL/well and cultured in a 5% CO2, 37° C. cell incubator. After half an hour, the test compound was diluted with PBS in a 3-fold gradient to the corresponding concentrations, and then the diluted test compound with different concentrations was added to the culture system of rat whole blood at 10 μL/well (the final concentration of the test compound was 1.0, 0.33, 0.11, 0.037, 0.012, 0.0041, 0.0014, and 0.0005 μM, the final concentration of DMSO was 0.3%, double replicate wells), or the control solution (0.3% DMSO, 6 replicate wells) was added to the corresponding well at 10 μL/well, which were incubated in the cell incubator for one hour. Then 10 μL/well of anti-rat immunoglobulin D diluted in PBS (the final concentration was 10 μg/mL) was add to the treating wells of the test compound and control wells for anti-rat immunoglobulin D, or 10 μL/well of PBS was added to the negative control wells, which were mixed well to continue the culture in a 5% CO2, 37° C. cell incubator, and incubated for 18 hours.
On the second day, the 96-well plates were taken out and the flow cytometry antibody mixture (the final concentration of anti-rat B220PE antibody was 1 μg/mL and the final concentration of anti-rat CD86 FITC antibody was 1 μg/mL) diluted with PBS was added to each well of plate, which were incubated for 30 minutes in the dark, and then 50 μL of blood from each well was pipetted to the freshly prepared 500 μL of lysis buffer to lyse red blood cells. The plates were shaken for 20 minutes, centrifuged to remove the supernatant, then washed, fixed, and detected on a flow cytometer.
The B cell activation in the sample was determined by flow dyeing method.
The average value of the proportion of activated B cells in the wells with anti-rat immunoglobulin D but without the test compound was used as the control treating well for anti-rat immunoglobulin D, and the average value of the proportion of activated B cells in the wells without immunoglobulin D stimulation and without the test compound was used as the negative control treating well. According to the B cell activation ratio in each well, the inhibition ratio (%) of each concentration was calculated, and then the IC50 value was obtained by using the 205 model in XL-Fit 5.3 software (ID Business Solutions Limited).
The inhibition ratio is calculated as follows: inhibition ratio (%)=100%−{(treating well for the test compound−negative control treating well)/(control treating well for anti-rat immunoglobulin D−negative control treating well)}×100%, wherein,
Treating well for the test compound: represents the B cell activation ratio in rat whole blood treated with anti-rat immunoglobulin D and the test compound.
Control treating well for anti-rat immunoglobulin D: represents the B cell activation ratio in rat whole blood treated with anti-rat immunoglobulin D but without the test compound.
Negative control treating well: represents the B cell activation ratio in rat whole blood without the test compound and without immunoglobulin stimulation.
Through the above-mentioned test, the compound of the present invention has a potency to inhibit B cell activation in rat whole blood.
(A flow cytometer gives signals particle by particle.)

For experiment [2], the target named is phosphorylated BTK in Ramos cells (Homo sapiens (Human), UniProt Q06187). Briefly: Determination of phosphorylated BTK in Ramos cells (BTK phospho-Y223 HTRF). The experiment is classed as cell-based. The note with it: anti-human IgM + hydrogen peroxide stimulation. The method in brief:
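Ramos cells starved 2 h in 1% FBS, then treated 1 h with compound (0.00018–3.0 μM, 0.3% DMSO). They were then stimulated 10 min at 37° C. with anti-human IgM (10 μg/mL) plus H2O2 (3.3 mM). Lysates read by BTK phospho-Y223 HTRF (665/615 nm ratio); IC50 fitted from inhibition normalized to stimulated and unstimulated controls.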
On the technique in general: TR-FRET usually uses a lanthanide donor and a delayed reading to cut background.

Chain of BTK recombinant protein (Q06187 whole entry): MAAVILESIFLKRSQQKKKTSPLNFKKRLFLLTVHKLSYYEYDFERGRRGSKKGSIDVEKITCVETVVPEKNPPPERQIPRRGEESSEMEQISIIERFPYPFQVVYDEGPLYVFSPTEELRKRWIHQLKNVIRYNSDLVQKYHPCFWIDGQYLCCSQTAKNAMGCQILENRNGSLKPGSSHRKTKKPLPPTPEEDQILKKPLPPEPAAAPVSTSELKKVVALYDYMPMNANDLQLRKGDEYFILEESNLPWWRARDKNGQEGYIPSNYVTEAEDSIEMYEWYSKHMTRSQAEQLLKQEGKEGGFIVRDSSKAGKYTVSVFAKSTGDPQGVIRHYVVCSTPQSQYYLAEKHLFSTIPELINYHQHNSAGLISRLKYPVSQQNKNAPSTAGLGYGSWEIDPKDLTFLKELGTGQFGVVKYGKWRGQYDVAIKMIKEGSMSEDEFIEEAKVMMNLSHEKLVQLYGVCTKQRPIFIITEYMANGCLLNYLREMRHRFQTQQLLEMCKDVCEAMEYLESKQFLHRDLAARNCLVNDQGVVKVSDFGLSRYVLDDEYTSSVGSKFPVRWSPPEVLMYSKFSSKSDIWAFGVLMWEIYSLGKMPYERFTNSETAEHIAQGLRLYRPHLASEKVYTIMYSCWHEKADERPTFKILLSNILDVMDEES
Chain of phosphorylated BTK in Ramos cells (Q06187 whole entry): as above

As a reminder, the IC50 is the point on the concentration scale where inhibition reaches its midpoint. With `C[C@@H]1CN(c2ccc(Nc3cc(-c4ccnc(-n5ccn6c7c(cc6c5=O)CC(C)(C)C7)c4CO)nn(C)c3=O)nc2)[C@@H](C)CN1C1COC1` [Compound 5], the IC50 on BTK recombinant protein was determined as 9 nM; in experiment [1], 2 nM.
On to `CC1(C)Cc2cc3c(=O)n(-c4nccc(-c5cc(Nc6cc7n(n6)CCN(C6COC6)C7)c6ncnn6c5)c4CO)ccn3c2C1` [Compound 13], for which the half-inhibitory concentration (IC50) in experiment [2] is 1 nM; in experiment [1] it was 5 nM.
Regarding `CN1CCn2nc(Nc3cc(-c4ccnc(-n5ccn6c7c(cc6c5=O)CC(C)(C)C7)c4CO)cn4ncnc34)cc2C1` [Compound 16], the results for the IC50 in experiment [2] and in experiment [1] were 2 nM and 8 nM, respectively.
The matching figures for `CC1(C)Cc2cc3c(=O)n(-c4nccc(-c5cc(Nc6cc7n(n6)CCNC7)c6ncnn6c5)c4CO)ccn3c2C1` [Compound 17]: 4 nM and 26 nM.
For `C[C@H]1CN(C2COC2)CCN1c1ccc(Nc2nc(-c3ccnc(-n4ccn5c6c(cc5c4=O)CC(C)(C)C6)c3CO)cn(C)c2=O)nc1` [Compound 20], the IC50 in experiment [2] was 17 nM; in experiment [1] it was 462 nM.
The matching figures for `CCn1cc(Nc2cc(-c3ccnc(-n4ccn5c6c(cc5c4=O)CC(C)(C)C6)c3CO)cn(C)c2=O)nn1` [Compound 24]: 14 nM and 85 nM.
The matching figures for `CCn1cc(Nc2cc(-c3ccnc(-n4ccn5c6c(cc5c4=O)CC(C)(C)C6)c3CO)nn(C)c2=O)nn1` [Compound 25]: 24 nM and 29 nM.
`C[C@H]1COCCN1c1ccc(Nc2cc(-c3ccnc(-n4ncn5c6c(cc5c4=O)CC(C)(C)C6)c3CO)cn(C)c2=O)nn1` [Compound 212]: the IC50 on BTK recombinant protein is 10 nM; in experiment [2], 11 nM.
For `C[C@H]1CN(C2COC2)CCN1c1ccc(Nc2cc(-c3ccnc(-n4ncn5c6c(cc5c4=O)CC(C)(C)C6)c3CO)cn(C)c2=O)nn1` [Compound 213] the same measures were 15 nM and 15 nM.
The matching figures for `CCn1cc(-c2ccnc(-n3ccn4c5c(cc4c3=O)CC(C)(C)C5)c2CO)cc(Nc2ccc(N3CCOC[C@@H]3C)nn2)c1=O` [Compound 214]: 31 nM and 24 nM.
The matching figures for `CCn1cc(-c2ccnc(-n3ccn4c5c(cc4c3=O)CC(C)(C)C5)c2CO)cc(Nc2ccc(N3C[C@@H](C)N(C4COC4)C[C@@H]3C)cn2)c1=O` [Compound 215]: 31 nM and 51 nM.
As to `C[C@H]1CN(C2COC2)CCN1c1ccc(Nc2cc(-c3cncc(-n4ccn5c6c(cc5c4=O)CC(C)(C)C6)c3CO)cn(C)c2=O)nc1` [Compound 216], the IC50 is 11 nM on BTK recombinant protein and 7 nM in experiment [2].
The matching figures for `CC[C@H]1CN(C2COC2)CCN1c1ccc(Nc2cc(-c3ccnc(-n4ccn5c6c(cc5c4=O)CC(C)(C)C6)c3CO)cn(C)c2=O)nn1` [Compound 217]: 8 nM and 10 nM.
The matching figures for `C[C@@H]1CN(c2ccc(Nc3cc(-c4ccnc(-n5ccn6c7c(c(F)c6c5=O)CCCC7)c4CO)cn(C)c3=O)nc2)[C@@H](C)CN1C1COC1` [Compound 218]: 6 nM and 12 nM.
Take `COCCN1CCN(c2ccc(Nc3cc(-c4ccnc(-n5ncn6c7c(cc6c5=O)CC(C)(C)C7)c4CO)cn(C)c3=O)nc2)C(C)(C)C1` [Compound 220]: the results for the IC50 (on BTK recombinant protein; in experiment [2]) were 5 nM and 16 nM, respectively.
The matching figures for `C[C@@H]1CN(c2ccc(Nc3cc(-c4ccnc(-n5ncn6c7c(c(F)c6c5=O)CCCC7)c4CO)cn(C)c3=O)nc2)[C@@H](C)CN1C1COC1` [Compound 221]: 8 nM and 12 nM.
In the case of `Cn1cc(-c2ccnc(-n3ccn4c5c(cc4c3=O)CC(C)(C)C5)c2CO)cc(Nc2ccc(N3CCN(C4COC4)CC3)nn2)c1=O` [Compound 222], the IC50 (on BTK recombinant protein; in experiment [2]) was 8 nM each time.
On to `CC[C@H]1CN(C2COC2)CCN1c1ccc(Nc2cc(-c3ccnc(-n4ncn5c6c(cc5c4=O)CC(C)(C)C6)c3CO)cn(C)c2=O)nc1` [Compound 224], for which the 50% inhibitory concentration (IC50) was 9 nM on BTK recombinant protein and 7 nM in experiment [2].
In the case of `Cn1cc(-c2ccnc(-n3ccn4c5c(c(F)c4c3=O)CCCC5)c2CO)cc(Nc2ccc(N3CCN(C4COC4)CC3(C)C)cn2)c1=O` [Compound 225], the results for the IC50 (on BTK recombinant protein; in experiment [2]) were 11 nM and 9 nM, respectively.
For `COCCN1CCN(c2ccc(Nc3cc(-c4ccnc(-n5ccn6c7c(cc6c5=O)CC(C)(C)C7)c4CO)cn(C)c3=O)nc2)C(C)(C)C1` [Compound 226] the same measures were 17 nM and 11 nM.
For `CC[C@H]1CN(C2COC2)CCN1c1ccc(Nc2cc(-c3ccnc(-n4ccn5c6c(c(F)c5c4=O)CCCC6)c3CO)cn(C)c2=O)nc1` [Compound 227] the same measures were 8 nM and 5 nM.
For `COCc1c(-c2cc(Nc3ccc(N4CCN(C5COC5)C[C@@H]4C)cn3)c(=O)n(C)c2)ccnc1-n1ccn2c3c(cc2c1=O)CC(C)(C)C3` [Compound 228] the same measures were 171 nM and 139 nM.
With `Cn1cc(-c2ccnc(-n3ccn4c5c(cc4c3=O)CC(C)(C)C5)c2CO)cc(Nc2ccc(N3CCC4(CC3)COC4)cn2)c1=O` [Compound 229], the IC50 on BTK recombinant protein was found to be 12 nM; in experiment [2], 10 nM.
The matching figures for `Cn1cc(-c2ccnc(-n3ccn4c5c(cc4c3=O)CC(C)(C)C5)c2CO)cc(Nc2ccc(N3C[C@@H]4C[C@H]3CN4C3COC3)cn2)c1=O` [Compound 230]: 29 nM and 20 nM.
For `Cn1cc(-c2ccnc(-n3ccn4c5c(cc4c3=O)CC(C)(C)C5)c2CO)cc(Nc2ccc(N3CCN(C4COC4)CC34CC4)cn2)c1=O` [Compound 231] the same measures were 5 nM and 4 nM.
For `Cn1cc(-c2ccnc(-n3ccn4c5c(cc4c3=O)CC(C)(C)C5)c2CO)cc(Nc2ccc(N3CCC4(CCOC4)CC3)cn2)c1=O` [Compound 233] the same measures were 40 nM and 8 nM.
For `C[C@@H]1[C@H](C)N(c2ccc(Nc3cc(-c4ccnc(-n5ccn6c7c(cc6c5=O)CC(C)(C)C7)c4CO)cn(C)c3=O)nc2)CCN1C1COC1` [Compound 234], the 50% inhibitory concentration (IC50) on BTK recombinant protein came to 32 nM; in experiment [2], 10 nM.
The matching figures for `Cn1cc(-c2ccnc(-n3ccn4c5c(cc4c3=O)CC(C)(C)C5)c2CO)cc(Nc2ccc(N3C4CC3CN(C3COC3)C4)cn2)c1=O` [Compound 235]: 22 nM and 13 nM.
